What was measured:
[1] = biological target: T1, Ubiquitin carboxyl-terminal hydrolase 28 (Homo sapiens) (UniProt Q96RU2); assay: Inhibition of human USP28 at 35 uM relative to control
T1 sequence (whole entry): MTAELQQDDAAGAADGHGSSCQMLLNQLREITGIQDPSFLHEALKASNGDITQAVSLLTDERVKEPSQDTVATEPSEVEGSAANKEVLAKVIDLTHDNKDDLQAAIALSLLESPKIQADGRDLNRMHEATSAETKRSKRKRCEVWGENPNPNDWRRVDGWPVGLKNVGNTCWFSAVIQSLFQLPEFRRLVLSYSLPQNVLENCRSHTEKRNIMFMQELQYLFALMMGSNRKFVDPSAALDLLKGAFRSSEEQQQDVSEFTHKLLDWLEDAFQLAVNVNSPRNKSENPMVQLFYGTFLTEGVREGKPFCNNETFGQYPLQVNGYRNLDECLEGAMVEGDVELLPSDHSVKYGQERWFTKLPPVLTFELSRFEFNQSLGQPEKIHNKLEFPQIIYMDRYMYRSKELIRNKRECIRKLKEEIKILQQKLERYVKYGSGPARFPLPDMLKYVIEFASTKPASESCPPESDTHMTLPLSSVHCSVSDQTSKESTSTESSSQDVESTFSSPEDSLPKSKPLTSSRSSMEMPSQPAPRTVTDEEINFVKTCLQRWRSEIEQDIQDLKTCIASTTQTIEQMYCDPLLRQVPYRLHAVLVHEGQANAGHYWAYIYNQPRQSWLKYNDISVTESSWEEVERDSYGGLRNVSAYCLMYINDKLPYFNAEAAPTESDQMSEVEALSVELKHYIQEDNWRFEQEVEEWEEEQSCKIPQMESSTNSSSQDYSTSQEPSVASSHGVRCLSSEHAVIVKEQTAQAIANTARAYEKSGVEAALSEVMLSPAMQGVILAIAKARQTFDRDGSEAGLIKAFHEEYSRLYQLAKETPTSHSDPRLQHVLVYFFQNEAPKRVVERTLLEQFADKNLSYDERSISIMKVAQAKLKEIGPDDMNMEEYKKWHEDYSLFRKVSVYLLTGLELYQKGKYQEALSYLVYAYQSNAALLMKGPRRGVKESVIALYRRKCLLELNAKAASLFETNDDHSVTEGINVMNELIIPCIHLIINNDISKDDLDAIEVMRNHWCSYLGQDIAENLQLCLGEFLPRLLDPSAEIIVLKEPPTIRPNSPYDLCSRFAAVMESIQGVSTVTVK

HeLa = assay: Cytotoxicity against human HeLa cells assessed as cell viability at 4 to 256 ug/mL measured after 20 hrs by XTT assay; assay type: toxicity, cell-based; conditions: dose 4-256 µg/ml

With N#Cc1nccc(C(=O)NCc2nn(C(=O)Cc3ccccc3)c3ccccc23)n1 the inhibition [1] was < 25% and the Activity (HeLa) was “Non-toxic”.

Reference: ChEMBL document CHEMBL6103628, “Structural Optimization of Covalent Inhibitors for Deubiquitinase ChlaDUB1 of Chlamydia trachomatis as Antibiotic Agents” (J Med Chem, 2025)
